Format in all cases: functional
For assay [1], the system named is NCI/ADR-RES. Briefly: Growth inhibition of Homo sapiens (human) NCI/ADR-RES cells at 10 uM after 48 hr by SRB assay. The following applies: read-out: GI.
Assay [2] relates to COLO 205. Briefly: Growth inhibition of Homo sapiens (human) COLO205 cells at 10 uM after 48 hr by SRB assay. The settings on record: COLO 205, 48 h, read-out: GI.
The subject of assay [3] is SK-MEL-28. Briefly: Growth inhibition of Homo sapiens (human) SK-MEL-28 cells at 10 uM after 48 hr by SRB assay. The settings on record: SK-MEL-28, 48 h, read-out: GI. On the technique in general: The SRB assay estimates cell density from bound dye.
The subject of assay [4] is MOLT-4. Briefly: Anticancer activity against Homo sapiens (human) MOLT4 cells after 48 hr by SRB assay. The following applies: MOLT-4, 48 h; for CC50: read-out: LC50 (the source's name).
Assay [5] concerns NCI-H226. In words: Anticancer activity against Homo sapiens (human) NCI-H226 cells after 48 hr by SRB assay. The following applies: NCI-H226, 48 h; for CC50: read-out: LC50 (the source's name).
The subject of assay [6] is NCI-H522. Briefly: Growth inhibition of Homo sapiens (human) NCI-H522 cells at 10 uM after 48 hr by SRB assay. The settings on record: NCI-H522, 48 h, read-out: GI.
The subject of assay [7] is SW-620. Briefly: Growth inhibition of Homo sapiens (human) SW620 cells at 10 uM after 48 hr by SRB assay. The following applies: SW-620, 48 h, read-out: GI.
Assay [8] relates to SK-MEL-5. Briefly: Growth inhibition of Homo sapiens (human) SK-MEL-5 cells at 10 uM after 48 hr by SRB assay. The settings on record: SK-MEL-5, 48 h, read-out: GI.
The test system of assay [9] is EKVX. Briefly: Growth inhibition of Homo sapiens (human) EKVX cells at 10 uM after 48 hr by SRB assay. The settings on record: read-out: GI.
Assay [10] relates to UACC-257. In words: Growth inhibition of Homo sapiens (human) UACC257 cells at 10 uM after 48 hr by SRB assay. The following applies: UACC-257, 48 h, read-out: GI.
Assay [11] deals with A549. Briefly: Growth inhibition of Homo sapiens (human) A549/ATCC cells at 10 uM after 48 hr by SRB assay. The following applies: A549, 48 h, read-out: GI.
For assay [12], the system named is SF-268. Briefly: Growth inhibition of Homo sapiens (human) SF268 cells at 10 uM after 48 hr by SRB assay. The following applies: SF-268, 48 h, read-out: GI.
Assay [13] deals with CAKI-1. In words: Growth inhibition of Homo sapiens (human) CAKI-1 cells at 10 uM after 48 hr by SRB assay. The following applies: CAKI-1, 48 h, read-out: GI.
Assay [14] deals with LOX IMVI. In words: Anticancer activity against Homo sapiens (human) LOXIMVI cells after 48 hr by SRB assay. The settings on record: for CC50: read-out: LC50 (the source's name).
The subject of assay [15] is SK-MEL-2. In words: Anticancer activity against Homo sapiens (human) SK-MEL-2 cells after 48 hr by SRB assay. The settings on record: SK-MEL-2, 48 h; for CC50: read-out: LC50 (the source's name).
For assay [16], the system named is SK-MEL-2. In words: Growth inhibition of Homo sapiens (human) SK-MEL-2 cells at 10 uM after 48 hr by SRB assay. The following applies: SK-MEL-2, 48 h, read-out: GI.
For assay [17], the system named is RPMI-8226. In words: Growth inhibition of Homo sapiens (human) RPMI8226 cells at 10 uM after 48 hr by SRB assay. The settings on record: RPMI-8226, 48 h, read-out: GI.
Assay [18] concerns A498. In words: Growth inhibition of Homo sapiens (human) A498 cells at 10 uM after 48 hr by SRB assay. The following applies: A498, 48 h, read-out: GI.
Assay [19] deals with DU-145. Briefly: Growth inhibition of Homo sapiens (human) DU145 cells at 10 uM after 48 hr by SRB assay. The settings on record: DU-145, 48 h, read-out: GI.
The test system of assay [20] is MDA-MB-231. In words: Growth inhibition of Homo sapiens (human) MDA-MB-231/ATCC cells at 10 uM after 48 hr by SRB assay. The following applies: MDA-MB-231, 48 h, read-out: GI.
Assay [21] deals with NCI-H322M. In words: Growth inhibition of Homo sapiens (human) NCI-H322M cells at 10 uM after 48 hr by SRB assay. The following applies: read-out: GI.
For assay [22], the system named is OVCAR-4. Briefly: Growth inhibition of Homo sapiens (human) OVCAR4 cells at 10 uM after 48 hr by SRB assay. The settings on record: OVCAR-4, 48 h, read-out: GI.
Assay [23] has as its system OVCAR-5. Briefly: Growth inhibition of Homo sapiens (human) OVCAR5 cells at 10 uM after 48 hr by SRB assay. The settings on record: OVCAR-5, 48 h, read-out: GI.
Assay [24] deals with SR. Briefly: Growth inhibition of Homo sapiens (human) SR cells at 10 uM after 48 hr by SRB assay. The settings on record: read-out: GI.
Assay [25] has as its system NCI-H226. Briefly: Growth inhibition of Homo sapiens (human) NCI-H226 cells at 10 uM after 48 hr by SRB assay. The settings on record: NCI-H226, 48 h, read-out: GI.

Turning to `COc1ccc(OC)c(/C=C/C(=O)N/N=C/c2ccccc2)c1`, the inhibition of growth at 10 µM in assay [1] was determined as 91.5%; in [2], 57.2%; in assay [3], 34.5%; in [6], 115%; in [7], 71.3%; in [8], 69.2%. In addition, the inhibition of growth at 10 µM in assay [9] was 36%; in assay [10], 48.7%; in assay [11], 51.6%; in assay [12] it was 39.3%; in assay [13], 52.2%; in assay [16] it was 101%. In addition, the values for the inhibition of growth at 10 µM in assay [17] and in [18] were 45.6% and 61.3%, respectively. The GI50 in [4] was determined as 4.45 µM; in assay [5] it was 30.8 µM; in assay [14], 4.11 µM; in assay [15], 2.98 µM. The TGI in assay [4] is more than 100 µM; in assay [5], more than 100 µM; in [14], more than 100 µM; in [15], 9.32 µM. Moreover, the CC50 in assay [4], in [5], in [14] and in assay [15] was more than 100 µM each time.

In the case of `COc1ccc(OC)c(/C=C/C(=O)N/N=C/c2ccc(Cl)cc2)c1`, the inhibition of growth at 10 µM was 85.2% in assay [19]; 96.2% in [1]; 149% in assay [2]; 61.2% in assay [3]; 71.9% in [20]; 58.7% in [21]. Further, the inhibition of growth at 10 µM in assay [6] came out at 136%; in assay [7] it was 80.1%; in [8], 69.4%; in assay [9], 56.9%; in assay [10], 47%; in assay [11], 72.2%. In addition, the inhibition of growth at 10 µM in assay [12] was found to be 66.8%; in assay [13] it was 58.2%; in assay [16] it was 77.7%; in assay [17] it was 78.7%; in [18], 87.5%; in assay [22], 59.8%. Further, the inhibition of growth at 10 µM in assay [23] is 71.6%. Further, the GI50 in assay [4] stood at 0.523 µM; in assay [5], 0.979 µM; in [14], 0.254 µM; in assay [15], 24.7 µM. Also, the TGI in assay [4], in assay [5], in [14] and in [15] was more than 100 µM throughout. Moreover, the CC50 in [4], in assay [5], in assay [14] and in assay [15] was more than 100 µM in each case.

In the case of `COc1ccc(OC)c(/C=C/c2nnc(S)n2-c2ccc(Cl)cc2)c1`, the values for the GI50 in assay [4], in assay [14] and in assay [15] were 7.74 µM, 5.02 µM and 4.05 µM, respectively. Also, the TGI in [4], in [14] and in [15] was more than 100 µM each time. In addition, the CC50 in assay [4], in [14] and in [15] was more than 100 µM in each case. For the same molecule, the results for the inhibition of growth at 10 µM in assay [24], in [7] and in assay [11] were 61.7%, 49.6% and 33.7%, respectively.

With `COc1ccc(OC)c(/C=C/c2nnc(Nc3ccc(Cl)cc3)o2)c1`, the GI50 in [4] is more than 100 µM; in assay [14], 7.91 µM; in assay [15], 9.66 µM. The TGI in [4], in [14] and in assay [15] was more than 100 µM throughout. In addition, the CC50 in assay [4], in assay [14] and in [15] was more than 100 µM in each case. In addition, the inhibition of growth at 10 µM in [21] was 41.4%; in assay [25] it was 43.9%; in assay [7] it was 33.3%; in [11] it was 59.8%; in [22], 116%.

For orientation: GI50 means the concentration at which growth is held to half of that of the control. Usually TGI stands for the concentration at which net growth stops. Lower therefore signals greater sensitivity of the cells.
